# Data taken from patent US9738634B2, “Heterocyclic amide compound and herbicide” (SYNGENTA PARTICIPATIONS AG, priority 2013, dated 2017).
# How the values were obtained:
# Type in all cases: in vivo
# [1] = system: barnyard grass; experiment: Test Example 2: weedkilling efficacy, growth period weed treatment in the submerged state; A: barnyard grass
# Method in brief: (§1)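 Seedlings at 1-2 leaves in 4 cm-deep submerged alluvial soil received emulsion formulations on the water surface, dosed per hectare; effects were judged 3 weeks on.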
# [2] = system: oval-leafed pondweed; experiment: Test Example 1: weedkilling efficacy, preemergent weed treatment in the submerged state; C: oval-leafed pondweed
# Method in brief: (§2)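 Submerged pre-emergence treatment, water-surface application of compound emulsion at g/ha dosages; 4 cm flooded alluvial soil, weeds sown and 2.5-leaf rice transplanted same day. Rated after 3 weeks, greenhouse.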
# [3] = system: bulrush; experiment: Test Example 2: weedkilling efficacy, growth period weed treatment in the submerged state; B: bulrush
# Method in brief: as §1
# [4] = system: transplanted rice; experiment: Test Example 1: preemergent weed treatment in the submerged state, effect on crop; a: transplanted rice
# Method in brief: as §2
# [5] = system: oval-leafed pondweed; experiment: Test Example 2: weedkilling efficacy, growth period weed treatment in the submerged state; C: oval-leafed pondweed
# Method in brief: as §1
# [6] = system: bulrush; experiment: Test Example 1: weedkilling efficacy, preemergent weed treatment in the submerged state; B: bulrush
# Method in brief: as §2
# [7] = system: barnyard grass; experiment: Test Example 1: weedkilling efficacy, preemergent weed treatment in the submerged state; A: barnyard grass
# Method in brief: as §2
compound,measurement,setting,value
CC1=C(c2ccccc2)C(=O)N(C(C)(C)C(=O)Nc2cc(Cl)cc(-c3ccccc3)n2)CO1 [B-2-45],A (barnyard grass) weedkilling efficacy grade,[1]; treatment dosage 320 g/ha,"4 (weed kill ratio 70% or more, less than 90%)"
same,C (oval-leafed pondweed) weedkilling efficacy grade,[2]; treatment dosage 320 g/ha,"4 (weed kill ratio 70% or more, less than 90%)"
same,B (bulrush) weedkilling efficacy grade,[3]; treatment dosage 320 g/ha,"2 (weed kill ratio 20% or more, less than 40%)"
same,a (transplanted rice) effect on crop grade,[4]; treatment dosage 320 g/ha,"2 (weed kill ratio 20% or more, less than 40%)"
same,C (oval-leafed pondweed) weedkilling efficacy grade,[5]; treatment dosage 320 g/ha,"4 (weed kill ratio 70% or more, less than 90%)"
same,B (bulrush) weedkilling efficacy grade,[6]; treatment dosage 320 g/ha,"5 (weed kill ratio 90% or more, (practically complete withering))"
same,A (barnyard grass) weedkilling efficacy grade,[7]; treatment dosage 320 g/ha,"5 (weed kill ratio 90% or more, (practically complete withering))"
O=C1N(c2ccccc2)COCN1C1(C(=O)Nc2cc(Cl)cc(Cl)n2)CC1 [A-7-04],A (barnyard grass) weedkilling efficacy grade,[1]; treatment dosage 1000 g/ha,0 (weed kill ratio 5% or less (practically no effect))
same,"C: oval-leafed pondweed, weed kill grade",[2]; treatment dosage 1000 g/ha,0 (weed kill ratio 5% or less (practically no effect))
same,B (bulrush) weedkilling efficacy grade,[3]; treatment dosage 1000 g/ha,"1 (weed kill ratio 5% or more, less than 20%)"
same,"a: transplanted rice, effect on crop grade",[4]; treatment dosage 1000 g/ha,0 (weed kill ratio 5% or less (practically no effect))
same,C (oval-leafed pondweed) weedkilling efficacy grade,[5]; treatment dosage 1000 g/ha,0 (weed kill ratio 5% or less (practically no effect))
same,"B: bulrush, weed kill grade",[6]; treatment dosage 1000 g/ha,"5 (weed kill ratio 90% or more, (practically complete withering))"
same,"A: barnyard grass, weed kill grade",[7]; treatment dosage 1000 g/ha,0 (weed kill ratio 5% or less (practically no effect))
Cn1ccc(NC(=O)C(C)(C)N2COCN(c3ccccc3)C2=O)n1 [A-1-03],A (barnyard grass) weedkilling efficacy grade,[1]; treatment dosage 320 g/ha,0 (weed kill ratio 5% or less (practically no effect))
same,"C: oval-leafed pondweed, weed kill grade",[2]; treatment dosage 320 g/ha,"2 (weed kill ratio 20% or more, less than 40%)"
same,B (bulrush) weedkilling efficacy grade,[3]; treatment dosage 320 g/ha,"2 (weed kill ratio 20% or more, less than 40%)"
same,"a: transplanted rice, effect on crop grade",[4]; treatment dosage 320 g/ha,0 (weed kill ratio 5% or less (practically no effect))
same,C (oval-leafed pondweed) weedkilling efficacy grade,[5]; treatment dosage 320 g/ha,0 (weed kill ratio 5% or less (practically no effect))
same,"B: bulrush, weed kill grade",[6]; treatment dosage 320 g/ha,"5 (weed kill ratio 90% or more, (practically complete withering))"
same,"A: barnyard grass, weed kill grade",[7]; treatment dosage 320 g/ha,0 (weed kill ratio 5% or less (practically no effect))
CC(C)(C(=O)Nc1ncc([N+](=O)[O-])s1)N1COCN(c2ccccc2)C1=O [A-1-09],A (barnyard grass) weedkilling efficacy grade,[1]; treatment dosage 320 g/ha,"4 (weed kill ratio 70% or more, less than 90%)"
same,"C: oval-leafed pondweed, weed kill grade",[2]; treatment dosage 320 g/ha,"4 (weed kill ratio 70% or more, less than 90%)"
same,B (bulrush) weedkilling efficacy grade,[3]; treatment dosage 320 g/ha,"5 (weed kill ratio 90% or more, (practically complete withering))"
same,"a: transplanted rice, effect on crop grade",[4]; treatment dosage 320 g/ha,0 (weed kill ratio 5% or less (practically no effect))
same,C (oval-leafed pondweed) weedkilling efficacy grade,[5]; treatment dosage 320 g/ha,"5 (weed kill ratio 90% or more, (practically complete withering))"
same,"B: bulrush, weed kill grade",[6]; treatment dosage 320 g/ha,"5 (weed kill ratio 90% or more, (practically complete withering))"
same,"A: barnyard grass, weed kill grade",[7]; treatment dosage 320 g/ha,"5 (weed kill ratio 90% or more, (practically complete withering))"
CSc1nc(NC(=O)C(C)(C)N2COCN(c3ccccc3)C2=O)ns1 [A-1-17],A (barnyard grass) weedkilling efficacy grade,[1]; treatment dosage 320 g/ha,0 (weed kill ratio 5% or less (practically no effect))
same,"C: oval-leafed pondweed, weed kill grade",[2]; treatment dosage 320 g/ha,"3 (weed kill ratio 40% or more, less than 70%)"
same,B (bulrush) weedkilling efficacy grade,[3]; treatment dosage 320 g/ha,"4 (weed kill ratio 70% or more, less than 90%)"
same,"a: transplanted rice, effect on crop grade",[4]; treatment dosage 320 g/ha,0 (weed kill ratio 5% or less (practically no effect))
same,C (oval-leafed pondweed) weedkilling efficacy grade,[5]; treatment dosage 320 g/ha,"2 (weed kill ratio 20% or more, less than 40%)"
same,"B: bulrush, weed kill grade",[6]; treatment dosage 320 g/ha,"5 (weed kill ratio 90% or more, (practically complete withering))"
same,"A: barnyard grass, weed kill grade",[7]; treatment dosage 320 g/ha,"2 (weed kill ratio 20% or more, less than 40%)"
Cc1cccc(N2COCN(C(C)(C)C(=O)Nc3cc(C(F)(F)F)ccn3)C2=O)c1 [A-6-07],A (barnyard grass) weedkilling efficacy grade,[1]; treatment dosage 320 g/ha,"4 (weed kill ratio 70% or more, less than 90%)"
same,"C: oval-leafed pondweed, weed kill grade",[2]; treatment dosage 320 g/ha,"5 (weed kill ratio 90% or more, (practically complete withering))"
same,B (bulrush) weedkilling efficacy grade,[3]; treatment dosage 320 g/ha,"5 (weed kill ratio 90% or more, (practically complete withering))"
same,"a: transplanted rice, effect on crop grade",[4]; treatment dosage 320 g/ha,"1 (weed kill ratio 5% or more, less than 20%)"
same,C (oval-leafed pondweed) weedkilling efficacy grade,[5]; treatment dosage 320 g/ha,"3 (weed kill ratio 40% or more, less than 70%)"
same,"B: bulrush, weed kill grade",[6]; treatment dosage 320 g/ha,"5 (weed kill ratio 90% or more, (practically complete withering))"
same,"A: barnyard grass, weed kill grade",[7]; treatment dosage 320 g/ha,"5 (weed kill ratio 90% or more, (practically complete withering))"
CC(C)(C(=O)Nc1cc(Br)cnc1F)N1COCN(c2ccccc2)C1=O [A-3-04],A (barnyard grass) weedkilling efficacy grade,[1]; treatment dosage 252 g/ha,"5 (weed kill ratio 90% or more, (practically complete withering))"
same,"C: oval-leafed pondweed, weed kill grade",[2]; treatment dosage 252 g/ha,"5 (weed kill ratio 90% or more, (practically complete withering))"
same,B (bulrush) weedkilling efficacy grade,[3]; treatment dosage 252 g/ha,"5 (weed kill ratio 90% or more, (practically complete withering))"
same,"a: transplanted rice, effect on crop grade",[4]; treatment dosage 252 g/ha,"3 (weed kill ratio 40% or more, less than 70%)"
same,C (oval-leafed pondweed) weedkilling efficacy grade,[5]; treatment dosage 252 g/ha,"3 (weed kill ratio 40% or more, less than 70%)"
same,"B: bulrush, weed kill grade",[6]; treatment dosage 252 g/ha,"5 (weed kill ratio 90% or more, (practically complete withering))"
same,"A: barnyard grass, weed kill grade",[7]; treatment dosage 252 g/ha,"5 (weed kill ratio 90% or more, (practically complete withering))"
CC(C)(C(=O)Nc1cccc(C(F)F)n1)N1COCN(c2ccccc2)C1=O [A-2-41],A (barnyard grass) weedkilling efficacy grade,[1]; treatment dosage 315 g/ha,"5 (weed kill ratio 90% or more, (practically complete withering))"
same,"C: oval-leafed pondweed, weed kill grade",[2]; treatment dosage 315 g/ha,"5 (weed kill ratio 90% or more, (practically complete withering))"
same,B (bulrush) weedkilling efficacy grade,[3]; treatment dosage 315 g/ha,"5 (weed kill ratio 90% or more, (practically complete withering))"
same,"a: transplanted rice, effect on crop grade",[4]; treatment dosage 315 g/ha,0 (weed kill ratio 5% or less (practically no effect))
same,C (oval-leafed pondweed) weedkilling efficacy grade,[5]; treatment dosage 315 g/ha,"5 (weed kill ratio 90% or more, (practically complete withering))"
same,"B: bulrush, weed kill grade",[6]; treatment dosage 315 g/ha,"5 (weed kill ratio 90% or more, (practically complete withering))"
same,"A: barnyard grass, weed kill grade",[7]; treatment dosage 315 g/ha,"5 (weed kill ratio 90% or more, (practically complete withering))"
CC1=C(c2ccccc2)C(=O)N(C(C)(C)C(=O)Nc2cc(-c3ccccc3)ccn2)CO1 [B-2-59],A (barnyard grass) weedkilling efficacy grade,[1]; treatment dosage 252 g/ha,0 (weed kill ratio 5% or less (practically no effect))
same,C (oval-leafed pondweed) weedkilling efficacy grade,[2]; treatment dosage 252 g/ha,"2 (weed kill ratio 20% or more, less than 40%)"
same,B (bulrush) weedkilling efficacy grade,[3]; treatment dosage 252 g/ha,"1 (weed kill ratio 5% or more, less than 20%)"
same,a (transplanted rice) effect on crop grade,[4]; treatment dosage 252 g/ha,0 (weed kill ratio 5% or less (practically no effect))
same,C (oval-leafed pondweed) weedkilling efficacy grade,[5]; treatment dosage 252 g/ha,0 (weed kill ratio 5% or less (practically no effect))
same,B (bulrush) weedkilling efficacy grade,[6]; treatment dosage 252 g/ha,"4 (weed kill ratio 70% or more, less than 90%)"
same,A (barnyard grass) weedkilling efficacy grade,[7]; treatment dosage 252 g/ha,"2 (weed kill ratio 20% or more, less than 40%)"
CC1=C(c2cccnc2F)C(=O)N(C(C)(C)C(=O)Nc2cc(C(F)(F)F)ccn2)CO1 [B-2-17],A (barnyard grass) weedkilling efficacy grade,[1]; treatment dosage 252 g/ha,"4 (weed kill ratio 70% or more, less than 90%)"
same,C (oval-leafed pondweed) weedkilling efficacy grade,[2]; treatment dosage 252 g/ha,"5 (weed kill ratio 90% or more, (practically complete withering))"
same,B (bulrush) weedkilling efficacy grade,[3]; treatment dosage 252 g/ha,"5 (weed kill ratio 90% or more, (practically complete withering))"
same,a (transplanted rice) effect on crop grade,[4]; treatment dosage 252 g/ha,"3 (weed kill ratio 40% or more, less than 70%)"
same,C (oval-leafed pondweed) weedkilling efficacy grade,[5]; treatment dosage 252 g/ha,"3 (weed kill ratio 40% or more, less than 70%)"
same,B (bulrush) weedkilling efficacy grade,[6]; treatment dosage 252 g/ha,"5 (weed kill ratio 90% or more, (practically complete withering))"
same,A (barnyard grass) weedkilling efficacy grade,[7]; treatment dosage 252 g/ha,"5 (weed kill ratio 90% or more, (practically complete withering))"
CC(C)(C(=O)Nc1cncc(Br)c1)N1COCN(c2ccccc2)C1=O [A-3-03],A (barnyard grass) weedkilling efficacy grade,[1]; treatment dosage 252 g/ha,"3 (weed kill ratio 40% or more, less than 70%)"
same,"C: oval-leafed pondweed, weed kill grade",[2]; treatment dosage 252 g/ha,"5 (weed kill ratio 90% or more, (practically complete withering))"
same,B (bulrush) weedkilling efficacy grade,[3]; treatment dosage 252 g/ha,"5 (weed kill ratio 90% or more, (practically complete withering))"
same,"a: transplanted rice, effect on crop grade",[4]; treatment dosage 252 g/ha,0 (weed kill ratio 5% or less (practically no effect))
same,C (oval-leafed pondweed) weedkilling efficacy grade,[5]; treatment dosage 252 g/ha,"4 (weed kill ratio 70% or more, less than 90%)"
same,"B: bulrush, weed kill grade",[6]; treatment dosage 252 g/ha,"5 (weed kill ratio 90% or more, (practically complete withering))"
same,"A: barnyard grass, weed kill grade",[7]; treatment dosage 252 g/ha,"5 (weed kill ratio 90% or more, (practically complete withering))"
CC(C)(C(=O)Nc1ccc(C(F)(F)F)cn1)N1COCN(c2ccccc2)C1=O [A-2-43],A (barnyard grass) weedkilling efficacy grade,[1]; treatment dosage 320 g/ha,"2 (weed kill ratio 20% or more, less than 40%)"
same,"C: oval-leafed pondweed, weed kill grade",[2]; treatment dosage 320 g/ha,"5 (weed kill ratio 90% or more, (practically complete withering))"
same,B (bulrush) weedkilling efficacy grade,[3]; treatment dosage 320 g/ha,"4 (weed kill ratio 70% or more, less than 90%)"
same,"a: transplanted rice, effect on crop grade",[4]; treatment dosage 320 g/ha,0 (weed kill ratio 5% or less (practically no effect))
same,C (oval-leafed pondweed) weedkilling efficacy grade,[5]; treatment dosage 320 g/ha,"2 (weed kill ratio 20% or more, less than 40%)"
same,"B: bulrush, weed kill grade",[6]; treatment dosage 320 g/ha,"5 (weed kill ratio 90% or more, (practically complete withering))"
same,"A: barnyard grass, weed kill grade",[7]; treatment dosage 320 g/ha,"3 (weed kill ratio 40% or more, less than 70%)"
